From ChEMBL document CHEMBL3351582, “A simple, general approach of allosteric coagulation enzyme inhibition through monosulfated hydrophobic scaffolds” (Bioorg Med Chem Lett, 2014)
Calls of active or inactive are those of the source. The calls are words filed in the database; no cut-off is given here.

Assays:
[1] = biological target: Coagulation factor X (Homo sapiens) (UniProt P00742); experiment: Inhibition of human factor 10a assessed as residual activity at 500 uM by spectrophotometric assay
[2] = biological target: Prothrombin (Homo sapiens) (UniProt P00734); experiment: Inhibition of human thrombin using spectrozyme TH as substrate assessed as residual activity at 500 uM by spectrophotometric assay
[3] = biological target: T1, Coagulation factor XII (Homo sapiens) (UniProt P00748); experiment: Inhibition of human factor 12a assessed as residual activity at 500 uM by spectrophotometric assay
T1 sequence (whole entry): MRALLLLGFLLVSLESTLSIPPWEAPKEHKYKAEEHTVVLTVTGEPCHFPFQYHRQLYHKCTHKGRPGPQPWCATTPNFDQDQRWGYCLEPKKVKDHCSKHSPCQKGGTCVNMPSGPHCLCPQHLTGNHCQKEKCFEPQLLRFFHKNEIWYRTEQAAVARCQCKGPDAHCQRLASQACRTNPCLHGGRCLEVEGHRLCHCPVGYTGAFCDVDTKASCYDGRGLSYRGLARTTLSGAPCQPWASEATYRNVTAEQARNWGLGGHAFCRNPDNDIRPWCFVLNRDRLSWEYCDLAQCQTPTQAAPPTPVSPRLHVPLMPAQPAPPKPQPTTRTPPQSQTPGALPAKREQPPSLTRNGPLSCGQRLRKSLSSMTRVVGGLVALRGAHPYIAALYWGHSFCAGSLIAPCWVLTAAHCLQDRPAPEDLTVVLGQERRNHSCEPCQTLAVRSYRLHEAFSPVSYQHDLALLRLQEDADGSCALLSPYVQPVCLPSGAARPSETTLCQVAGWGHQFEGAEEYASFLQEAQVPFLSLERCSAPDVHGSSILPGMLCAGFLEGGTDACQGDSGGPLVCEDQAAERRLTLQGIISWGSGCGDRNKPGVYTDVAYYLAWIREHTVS

[4] = biological target: T2, Coagulation factor VII (Homo sapiens) (UniProt P08709); experiment: Inhibition of human factor 7a assessed as residual activity at 500 uM by spectrophotometric assay
T2 sequence (whole entry): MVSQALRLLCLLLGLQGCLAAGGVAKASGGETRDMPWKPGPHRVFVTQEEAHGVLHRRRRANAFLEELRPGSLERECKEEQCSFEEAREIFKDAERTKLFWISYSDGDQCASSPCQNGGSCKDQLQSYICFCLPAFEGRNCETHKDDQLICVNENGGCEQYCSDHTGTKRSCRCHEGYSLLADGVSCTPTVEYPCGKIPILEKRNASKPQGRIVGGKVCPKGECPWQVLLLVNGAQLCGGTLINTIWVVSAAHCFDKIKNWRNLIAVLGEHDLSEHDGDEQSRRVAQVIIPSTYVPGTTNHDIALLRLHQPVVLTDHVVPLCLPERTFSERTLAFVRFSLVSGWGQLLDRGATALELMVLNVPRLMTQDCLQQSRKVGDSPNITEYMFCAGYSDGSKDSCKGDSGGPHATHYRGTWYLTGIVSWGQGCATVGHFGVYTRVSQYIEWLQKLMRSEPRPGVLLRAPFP

[5] = biological target: Coagulation factor XI (Homo sapiens) (UniProt P03951); experiment: Inhibition of human factor 11a assessed as residual activity at 500 uM by spectrophotometric assay
[6] = biological target: Coagulation factor IX (Homo sapiens) (UniProt P00740); experiment: Inhibition of human factor 9a assessed as residual activity at 500 uM by spectrophotometric assay
[7] = biological target: Prothrombin (Homo sapiens) (UniProt P00734); experiment: Non-competitive inhibition of human thrombin using spectrozyme TH as substrate assessed as effect on substrate Km at 400 uM by Michaelis-Menten kinetics
[8] = system: COc1cc2occ(C(=O)OC(C)(C)C)c2cc1OCc1nc2ccc(OS(=O)(=O)O)cc2s1; details: Homo sapiens; 400 uM
Description: Non-competitive inhibition of human thrombin using spectrozyme TH as substrate assessed as reduction in substrate Vmax at 400 uM by Michaelis-Menten kinetics

Sequence of Coagulation factor IX (Homo sapiens) (P00740 47-191 limits assumed): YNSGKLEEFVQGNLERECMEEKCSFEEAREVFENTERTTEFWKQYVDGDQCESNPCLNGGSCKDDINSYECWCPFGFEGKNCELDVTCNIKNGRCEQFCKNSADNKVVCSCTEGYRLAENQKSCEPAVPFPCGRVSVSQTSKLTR
Sequence of Coagulation factor IX (Homo sapiens) (P00740 227-461 limits assumed): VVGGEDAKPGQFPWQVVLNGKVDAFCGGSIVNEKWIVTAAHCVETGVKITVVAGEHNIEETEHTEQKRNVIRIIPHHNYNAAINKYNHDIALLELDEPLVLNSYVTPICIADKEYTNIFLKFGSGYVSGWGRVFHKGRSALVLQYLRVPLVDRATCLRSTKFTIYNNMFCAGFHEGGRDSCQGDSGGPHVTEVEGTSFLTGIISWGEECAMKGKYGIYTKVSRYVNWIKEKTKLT
Sequence of Coagulation factor X (Homo sapiens) (P00742 41-179 limits assumed): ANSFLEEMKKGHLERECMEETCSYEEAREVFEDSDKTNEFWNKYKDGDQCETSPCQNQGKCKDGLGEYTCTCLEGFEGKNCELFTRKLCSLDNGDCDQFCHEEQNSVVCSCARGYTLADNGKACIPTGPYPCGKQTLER
Sequence of Coagulation factor X (Homo sapiens) (P00742 235-488 limits assumed): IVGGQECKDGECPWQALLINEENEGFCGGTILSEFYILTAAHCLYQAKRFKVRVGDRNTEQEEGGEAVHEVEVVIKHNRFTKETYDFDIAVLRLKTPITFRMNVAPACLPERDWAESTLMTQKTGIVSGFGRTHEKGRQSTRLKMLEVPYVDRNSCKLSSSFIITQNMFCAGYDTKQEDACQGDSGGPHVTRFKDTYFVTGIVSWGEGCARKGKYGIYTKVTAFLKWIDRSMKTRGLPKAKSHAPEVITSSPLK
Sequence of Coagulation factor XI (Homo sapiens) (P03951 19-387 limits assumed): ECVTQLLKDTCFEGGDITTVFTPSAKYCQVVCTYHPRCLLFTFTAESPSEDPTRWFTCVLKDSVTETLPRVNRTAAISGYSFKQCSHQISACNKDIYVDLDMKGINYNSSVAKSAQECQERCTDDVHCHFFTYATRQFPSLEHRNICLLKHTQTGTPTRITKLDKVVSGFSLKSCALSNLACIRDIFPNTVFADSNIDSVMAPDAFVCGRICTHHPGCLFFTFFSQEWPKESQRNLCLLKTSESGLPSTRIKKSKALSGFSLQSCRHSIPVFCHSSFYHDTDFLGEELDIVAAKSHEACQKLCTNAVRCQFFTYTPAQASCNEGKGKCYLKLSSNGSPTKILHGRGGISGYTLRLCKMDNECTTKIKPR
Sequence of Coagulation factor XI (Homo sapiens) (P03951 388-625 limits assumed): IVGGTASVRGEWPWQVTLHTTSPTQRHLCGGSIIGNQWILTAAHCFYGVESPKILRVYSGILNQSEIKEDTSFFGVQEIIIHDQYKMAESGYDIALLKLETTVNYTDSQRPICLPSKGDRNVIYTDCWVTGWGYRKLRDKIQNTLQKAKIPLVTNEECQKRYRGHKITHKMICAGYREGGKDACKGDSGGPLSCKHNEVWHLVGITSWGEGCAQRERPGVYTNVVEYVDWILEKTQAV

Row | Compound | Activity [1] | Activity [2] | Activity [3] | Activity [4] | Activity [5] | Activity [6] | inhibition [7] | Vmax [8]
1 | COc1cc2occ(C(=O)OC(C)(C)C)c2cc1OCc1nc2ccc(OS(=O)(=O)O)cc2s1 | 22% | 30% | 100% | 98% | 0% | 101% | Active | –
2 | CCOC(=O)c1c(C)oc2cc(OC)c(OCc3oc4cc(OC)c(OCc5nc6ccc(OS(=O)(=O)O)cc6s5)cc4c3C(=O)OCC)cc12 | 98% | 104% | 100% | 100% | 62% | 82% | – | –
3 | Prothrombin (Homo sapiens) (from UniProt P00734) | – | – | – | – | – | – | – | 24.5 mAU/min/µM
4 | CCOC(=O)c1c(Cc2ccccc2)oc2cc(OC)c(OCc3nc4ccc(OS(=O)(=O)O)cc4s3)cc12 | 90% | 108% | 96% | 100% | 88% | 90% | – | –
5 | CCOC(=O)c1c(COc2cc3c(C(=O)OCC)c(Cc4ccccc4)oc3cc2OC)[nH]c2ccc(OS(=O)(=O)O)cc12 | 37% | 29% | 100% | 109% | 0% | 98% | – | –
6 | CCOC(=O)c1c(C)[nH]c2ccc(OCc3c(C(=O)OCC)c4cc(OS(=O)(=O)O)ccc4n3C(=O)OC(C)(C)C)cc12 | 0% | 42% | 92% | 99% | 0% | 98% | – | –

Further lines, with some results ahead:

Row | Activity [1] | Activity [2] | Activity [3] | Activity [4] | Activity [5] | Activity [6] | inhibition [7] | Compound | Vmax [8]
7 | 120% | 100% | 90% | 90% | 114% | 98% | – | CCOC(=O)c1c(C)[nH]c2ccc(OS(=O)(=O)O)cc12 | –
8 | 105% | 48% | 97% | 102% | 120% | 110% | – | Cc1nc2ccc(OCc3nc4ccc(OS(=O)(=O)O)cc4s3)cc2s1 | –
9 | 34% | 102% | 97% | 87% | 111% | 98% | – | CCOC(=O)c1c(COc2cc3c(C(=O)OCC)coc3cc2OC)[nH]c2ccc(OS(=O)(=O)O)cc12 | –
10 | 33% | 46% | 97% | 92% | 16% | 109% | – | CCOC(=O)c1c(COc2cc3c(C(=O)OCC)c(COc4cc5c(C(=O)OCC)c(C)oc5cc4OC)oc3cc2OC)[nH]c2ccc(OS(=O)(=O)O)cc12 | –
11 | 77% | 99% | 95% | 91% | 52% | 94% | – | Cc1nc2ccc(OS(=O)(=O)O)cc2s1 | –
